The record followed here is patent US20230158042A1, “COMBINATION CANCER THERAPY WITH PENTAAZA MACROCYCLIC RING COMPLEX AND HORMONE THERAPY AGENT” (Galera Labs, LLC, priority 2020, published 2023).

Molecules are shown by their SMILES.

One test concerns LNCaP-MnSOD^K68Q cells. Put plainly: Clonogenic cell survival in LNCaP-MnSOD^K68Q cells. In kind it is cell-based. The note with it: GC4419 20 µM for 5 days, treated with ENZ. Here is the method:
In FIG. 20a, clonogenic cell survival experiments were done in LNCaP-ENZR cells infected with lenti-MnSOD^K68R or lenti-MnSOD^K68Q, in the presence of ENZ (10 µM). In FIG. 20b, clonogenic survival assays were done in LNCaP cells infected with lenti-MnSOD^WT, lenti-MnSOD^K68R, and lenti-MnSOD^K68Q, and selected with neomycin, and placed in 10 µM of ENZ for 72 hr. Error bars ± 1 SEM. Experiments were done in triplicate. **p < 0.01.
FIGS. 21a-21b are a chart and graph showing that pharmacologically mimicking the activity of deacetylated lysine 68 MnSOD with a manganese pentaazamacrocyclic dismutase mimetic both inhibited the growth of LNCaP-ENZR tumors and reversed the enzalutamide resistance in LNCaP-ENZR / LNCaP—MnSOD^K68Q cells and tumors. In FIG. 21a, clonogenic cell survival experiments were performed in LNCaP-ENZR (left two bars) and LNCaP—MnSOD^K68Q (right two bars) treated with ENZ, with or without GC4419 (20 µM) for 5 days. […] Tumor volumes were measured three times a week for 46 days. For each group n=10. Error bars ± 1 SEM. All experiments done in triplicate. **p < 0.01.

The subject of test [1] is Sirt3^-/--MT-SIRT3^WT allografts. Put plainly: Sirt3-/--MT-SIRT3^WT mammary allograft tumor growth (bioluminescence). The test is classed as in vivo. The conditions noted are these: GC4419 by IP every other day for five weeks; compared to control mice. Here is the method:
FIGS. 29a-29b are plots showing that the growth of murine mammary allograft tumors is inhibited by exposure to the MnSOD mimic GC4419 much more in cells without expression of deacetylation competent SIRT3. […] Mice were subsequently injected with luciferin potassium (120 mg/kg) every week and signal intensity will be quantified. Error bars represent one SD from the mean.
These cell lines were subsequently infected with and selected to express either a SIRT3 wild-type (Sirt3^-/--MT-SIRT3^WT) or deacetylation activity null (Sirt3^-/--MT-SIRT3^DN) gene and a lenti-luciferase to assess tumor growth by bioluminescence. Allograft tumor mice were split into four groups: (1) control, untreated Sirt3^-/--MT-SIRT3^DN; (2) GC4419 treated Sirt3^-/--MT-SIRT3^DN; (3) control, untreated Sirt3^-/--MT-SIRT3^WT; and (4) GC4419 treated Sirt3^-/--MT-SIRT3^WT. […] Accordingly, it was shown that the growth of murine mammary allograft tumors is inhibited by pharmacologically mimicking the activity of deacetylated lysine 68 MnSOD with a manganese pentaazamacrocyclic dismutase mimetic much more in tumors without deacetylation competent SIRT3. Further, this supports that selection of tumors displaying an AcK68 signature could increase response to treatment with a MnPAM dismutase mimetic (or other methods) alone or in combination with other therapies.

As for `[Cl][Mn][Cl].c1cc2nc(c1)CN[C@H]1CCCC[C@@H]1NCCN[C@H]1CCCC[C@@H]1NC2` [GC4419], the “ENZR phenotype (clonogenic cell survival)” value with LNCaP-MnSOD^K68Q cells is given as “converted to a sensitive phenotype”. Besides, the tumor growth entry in test [1] is given as “little change in tumor growth”.
